# Assay results reported in patent US20090068290A1, “BIFEPRUNOX DOSES FOR TREATING SCHIZOPHRENIA” (priority 2006, published 2009).
# Columns and labels:
# Type in all cases: in vivo, human
# [1] = Body weight, Clinical Study Two
# [2] = system: adult subjects with schizophrenia; experiment: PANSS negative subscale score, Clinical Study One; settings: ITT; for PANSS Negative Subscale Score, Trt Effect (bifeprunox—placebo): ANCOVA
# Experimental: There were five treatment groups in this study. […] Study medication was administered once daily. After Baseline measurements were performed, the titration phase was begun. Bifeprunox treated subjects were titrated up to 5 mg, 10 mg or 20 mg according to a standardized titration schedule (Day 1: 0.125 mg, Day 2: 0.25 mg, Day 3: 0.5 mg, Day 4: 1.0 mg, Day 5: 2.0 mg, Day 6: 5.0 mg, Day 7: 10.0 mg, Day 8: 20 mg). When the assigned dose was reached, subjects were maintained at that dose for the remainder of the six-week treatment period.
# The change in the Positive and Negative Symptom Scale (PANSS) total score, from baseline to endpoint, was the primary outcome measure. Secondary efficacy measures included: PANSS positive, PANSS negative, PANSS general psychopathology (GPP) score, PANSS-derived Brief Psychiatric Rating Scale (BPRS) score, Clinical Global Impressions-Severity of Illness (CGI-S), CGI-Improvement (CGI-I) scores, and responder rates. Safety and tolerability evaluations included extrapyramidal symptoms (EPS), weight gain, lipid profile, and serum prolactin.
# [3] = system: adult subjects with schizophrenia; experiment: CGI Severity of Illness score, Clinical Study Three; settings: LOCF
# Excerpt: SECONDARY OBJECTIVES To assess the efficacy of bifeprunox in treating schizophrenia using the Positive Symptom sub-scale score of the PANSS, the Negative Symptom sub-scale score of the PANSS, the General Psychopathology sub-scale of the PANSS, Brief Psychiatric Rating Scale (BPRS) total score derived from the PANSS, BPRS psychosis score derived from the PANSS, the Clinical Global Impression Severity of Illness score (CGI-S), the Clinical Global Impression Improvement score (CGI-I), CGI-I responder rate, PANSS responder rate based on the PANSS total score, Calgary Depression Scale for Schizophrenia (CDSS), and Subject Satisfaction rating.
# There were four treatment arms in this study, approximately 144 subjects per arm. […] After completing the Single-Blind Placebo Lead-in Period of at least three days, bifeprunox-treated subjects were titrated from 0.25 mg up to 20 mg/day or 30 mg/day according to a standardized titration scheme over a seven- or eight-day period, respectively. When the assigned dose was reached, subjects were maintained at that dose for the remainder of the six week treatment period. […] Subjects were hospitalized (if not already inpatients) after eligibility for study entry was verified, starting from the Screening Visit until at least 10 days after Baseline. Subjects could be hospitalized longer than 10 days if considered medically necessary by the Investigator. Rating scale assessments for efficacy and abnormal movement disorders were done weekly except for Week 5. […] Subject satisfaction with study medication was assessed at Week 6.
# [4] = Bifeprunox 10 mg, Endpoint LOCF
# [5] = Bifeprunox 20 mg, Endpoint LOCF
smiles,measurement,setting,value
"O=c1[nH]c2cccc(N3CCN(Cc4cccc(-c5ccccc5)c4)CC3)c2o1 [Bifeprunox, 7-[4-([1,1′-biphenyl]-3-ylmethyl)-1-piperazinyl]-2(3H)-benzoxazolone]","Weight, Baseline Mean of subjects with Endpoint change",[1]; Bifeprunox 30 mg,168.1 lbs
same,"Weight, Baseline Mean of subjects with Week 6 change",[1]; Bifeprunox 30 mg,166.1 lbs
same,"Weight, Baseline, Max",[1]; Bifeprunox 30 mg,360 lbs
same,"Weight, Baseline, Mean (SD)",[1]; Bifeprunox 30 mg,169.2 (55.3) lbs
same,"Weight, Baseline, Median",[1]; Bifeprunox 30 mg,161 lbs
same,"Weight, Baseline, Min",[1]; Bifeprunox 30 mg,84 lbs
same,"Weight, Change from Baseline at Endpoint, Max",[1]; Bifeprunox 30 mg,9 lbs
same,"Weight, Change from Baseline at Endpoint, Mean (SD)",[1]; Bifeprunox 30 mg,−2.2 (6.7) lbs
same,"Weight, Change from Baseline at Endpoint, Median",[1]; Bifeprunox 30 mg,0 lbs
same,"Weight, Change from Baseline at Endpoint, Min",[1]; Bifeprunox 30 mg,−32 lbs
same,"Weight, Change from Baseline at Week 6, Max",[1]; Bifeprunox 30 mg,8 lbs
same,"Weight, Change from Baseline at Week 6, Mean (SD)",[1]; Bifeprunox 30 mg,−4.3 (8.2) lbs
same,"Weight, Change from Baseline at Week 6, Median",[1]; Bifeprunox 30 mg,−2 lbs
same,"Weight, Change from Baseline at Week 6, Min",[1]; Bifeprunox 30 mg,−32 lbs
same,mean weight change at Endpoint,[1]; Bifeprunox 30 mg,−2.2 lbs
same,"Weight, Baseline Mean of subjects with Endpoint change",[1]; Bifeprunox 40 mg,160.7 lbs
same,"Weight, Baseline Mean of subjects with Week 6 change",[1]; Bifeprunox 40 mg,162.0 lbs
same,"Weight, Baseline, Max",[1]; Bifeprunox 40 mg,378 lbs
same,"Weight, Baseline, Mean (SD)",[1]; Bifeprunox 40 mg,161.9 (46.6) lbs
same,"Weight, Baseline, Median",[1]; Bifeprunox 40 mg,155 lbs
same,"Weight, Baseline, Min",[1]; Bifeprunox 40 mg,84 lbs
same,"Weight, Change from Baseline at Endpoint, Max",[1]; Bifeprunox 40 mg,15 lbs
same,"Weight, Change from Baseline at Endpoint, Mean (SD)",[1]; Bifeprunox 40 mg,−1.9 (5.8) lbs
same,"Weight, Change from Baseline at Endpoint, Median",[1]; Bifeprunox 40 mg,−1 lbs
same,"Weight, Change from Baseline at Endpoint, Min",[1]; Bifeprunox 40 mg,−18 lbs
same,"Weight, Change from Baseline at Week 6, Max",[1]; Bifeprunox 40 mg,10 lbs
same,"Weight, Change from Baseline at Week 6, Mean (SD)",[1]; Bifeprunox 40 mg,−3.1 (5.8) lbs
same,"Weight, Change from Baseline at Week 6, Median",[1]; Bifeprunox 40 mg,−2 lbs
same,body weight (in words),"[1]; bifeprunox 30, 40 mg, 6 weeks",Small comparable decreases in body weight
same,"Change from Baseline in PANSS Negative Subscale Score, Mean (S.D.)","[2]; Bifeprunox 5 mg, Endpoint LOCF",−2.2 (4.9)
same,"Change from Baseline in PANSS Negative Subscale Score, Median","[2]; Bifeprunox 5 mg, Endpoint LOCF",−2
same,"PANSS Negative Subscale Score, Trt Effect (bifeprunox—placebo)","[2]; Bifeprunox 5 mg, Endpoint LOCF",−1.0
same,"Change from Baseline in PANSS Negative Subscale Score, Mean (S.D.)","[2]; Bifeprunox 5 mg, Week 1, LOCF",−1.1 (3.9)
same,"Change from Baseline in PANSS Negative Subscale Score, Median","[2]; Bifeprunox 5 mg, Week 1, LOCF",−1
same,"Change from Baseline in PANSS Negative Subscale Score, Mean (S.D.)","[2]; Bifeprunox 5 mg, Week 2, LOCF",−1.8 (4.4)
same,"Change from Baseline in PANSS Negative Subscale Score, Median","[2]; Bifeprunox 5 mg, Week 2, LOCF",−2
same,"Change from Baseline in PANSS Negative Subscale Score, Mean (S.D.)","[2]; Bifeprunox 5 mg, Week 3, LOCF",−1.8 (4.7)
same,"Change from Baseline in PANSS Negative Subscale Score, Median","[2]; Bifeprunox 5 mg, Week 3, LOCF",−2
same,"Change from Baseline in PANSS Negative Subscale Score, Mean (S.D.)","[2]; Bifeprunox 5 mg, Week 4, LOCF",−2.0 (4.9)
same,"Change from Baseline in PANSS Negative Subscale Score, Median","[2]; Bifeprunox 5 mg, Week 4, LOCF",−1
same,"Change from Baseline in PANSS Negative Subscale Score, Mean (S.D.)",[2]; [4],−1.7 (4.7)
same,"Change from Baseline in PANSS Negative Subscale Score, Median",[2]; [4],−1
same,"Change from Baseline in PANSS Negative Subscale Score, Mean (S.D.)","[2]; Bifeprunox 10 mg, Week 1, LOCF",−1.4 (3.4)
same,"Change from Baseline in PANSS Negative Subscale Score, Median","[2]; Bifeprunox 10 mg, Week 1, LOCF",−1
same,"Change from Baseline in PANSS Negative Subscale Score, Mean (S.D.)","[2]; Bifeprunox 10 mg, Week 2, LOCF",−1.5 (4.2)
same,"Change from Baseline in PANSS Negative Subscale Score, Median","[2]; Bifeprunox 10 mg, Week 2, LOCF",−1
same,"Change from Baseline in PANSS Negative Subscale Score, Mean (S.D.)","[2]; Bifeprunox 10 mg, Week 3, LOCF",−1.7 (5.0)
same,"Change from Baseline in PANSS Negative Subscale Score, Median","[2]; Bifeprunox 10 mg, Week 3, LOCF",−1
same,"Change from Baseline in PANSS Negative Subscale Score, Mean (S.D.)","[2]; Bifeprunox 10 mg, Week 4, LOCF",−1.5 (4.6)
same,"Change from Baseline in PANSS Negative Subscale Score, Median","[2]; Bifeprunox 10 mg, Week 4, LOCF",−1
same,"Change from Baseline in PANSS Negative Subscale Score, Mean (S.D.)",[2]; [5],−2.6 (5.3)
same,"Change from Baseline in PANSS Negative Subscale Score, Median",[2]; [5],−2
same,"PANSS Negative Subscale Score, Trt Effect (bifeprunox—placebo)",[2]; [5],−1.4
same,"Change from Baseline in PANSS Negative Subscale Score, Mean (S.D.)","[2]; Bifeprunox 20 mg, Week 1, LOCF",−1.6 (3.4)
same,"Change from Baseline in PANSS Negative Subscale Score, Median","[2]; Bifeprunox 20 mg, Week 1, LOCF",−1
same,"Change from Baseline in PANSS Negative Subscale Score, Mean (S.D.)","[2]; Bifeprunox 20 mg, Week 2, LOCF",−2.0 (4.2)
same,"Change from Baseline in PANSS Negative Subscale Score, Median","[2]; Bifeprunox 20 mg, Week 2, LOCF",−1
same,"Change from Baseline in PANSS Negative Subscale Score, Mean (S.D.)","[2]; Bifeprunox 20 mg, Week 3, LOCF",−2.7 (4.4)
same,"Change from Baseline in PANSS Negative Subscale Score, Mean (S.D.)","[2]; Bifeprunox 20 mg, Week 4, LOCF",−2.5 (4.6)
same,"Change from Baseline in PANSS Negative Subscale Score, Median","[2]; Bifeprunox 20 mg, Week 4, LOCF",−2
same,"CGI Severity of Illness Score, Trt Effect","[3]; 20 mg versus placebo, Week 6/Endpoint",−0.13
same,"Change from Baseline in CGI Severity of Illness Score, Mean (SD)","[3]; 20 mg, Week 1",−0.23 (0.63)
same,"Change from Baseline in CGI Severity of Illness Score, Median","[3]; 20 mg, Week 1",0.0
same,"Change from Baseline in CGI Severity of Illness Score, Mean (SD)","[3]; 20 mg, Week 2",−0.48 (0.81)
same,"Change from Baseline in CGI Severity of Illness Score, Median","[3]; 20 mg, Week 2",0.0
same,"Change from Baseline in CGI Severity of Illness Score, Mean (SD)","[3]; 20 mg, Week 3",−0.59 (0.89)
same,"Change from Baseline in CGI Severity of Illness Score, Median","[3]; 20 mg, Week 3",−1.0
same,"Change from Baseline in CGI Severity of Illness Score, Mean (SD)","[3]; 20 mg, Week 4",−0.65 (0.95)
same,"Change from Baseline in CGI Severity of Illness Score, Median","[3]; 20 mg, Week 4",−1.0
same,"Change from Baseline in CGI Severity of Illness Score, Mean (SD)","[3]; 20 mg, Week 6/Endpoint",−0.63 (0.98)
same,"Change from Baseline in CGI Severity of Illness Score, Median","[3]; 20 mg, Week 6/Endpoint",−1.0
same,"CGI Severity of Illness Score, Trt Effect","[3]; 30 mg versus placebo, Week 6/Endpoint",−0.09
same,"Change from Baseline in CGI Severity of Illness Score, Mean (SD)","[3]; 30 mg, Week 1",−0.26 (0.60)
